Experimental data from US20050058745A1, “Use of Labiatae herb preparations for extending the flavor shelf life of malt beverages” (priority 2003, published 2005).

Legend:
[1] = Blind sensory triangle panels, model citrus beverage
Description: Carbon filtered water was carbonated to 3.5 to 4 times the volume of beer. 59.2 ml of syrup was added to each 355 ml bottle. Each bottle was individually dosed with the treatments listed in Table 22 by adding 1.775 mL of a 1% (weight/volume) solution of carnosol or rosmarinic acid in ethanol to give 50 ppm of each. The bottle was filled to approximately 355 ml with carbonated water before it was capped and inverted. Fresh samples were stored in the refrigerator (0° C.). Heat exposed samples were aged in the oven (32° C.) for seven days. […] Each panel was balanced, with half of the panel given control as the odd sample, the other half of the panel given a treated sample as the odd sample. Panelists were allowed to drink water during the panel.

[2] = Haze formation in aged beer (Haze Meter); assay type: physicochemical; conditions: for Haze: 20 ppm (RA + CA: 10 ppm each); for effect on rate of haze formation: aged beer exposed to air
Description: The highly hopped beer from example 2 was treated with solutions of carnosic acid in ethanol, rosmarinic acid in ethanol or a mixture of carnosic acid and rosmarinic acid in ethanol as done previously. The preparations were: • 1. “Fresh”, in which the beer remained unopened and was stored in the cold room at 2-4° C. • 2. “20 ppm CA” in which bottles were opened and 20 ppm carnosic acid was added from a 2% solution of pure CA ([…] of the 2% solution). The bottles were fobbed to exclude air and crowned. • 3. “20 ppm CA+air” in which bottles were opened and 20 ppm CA added as above. These bottles received two puffs of air in the remaining headspace from a 25 mL bulb. They were crowned without fobbing • 4. “20 ppm RA” in which bottles were opened and 20 ppm rosmarinic acid added from a 2% solution. The bottles were fobbed and crowned. • 5. “20 ppm RA+air” which was done as in No. 4, with 20 ppm RA added. These bottles received the two puffs of air and were crowned without fobbing. • 6. “10 ppm RA+10 ppm CA” in which bottles were opened and 10 ppm each of carnosic and rosmarinic acids were added from pure solutions (178 μL of 2% solution per 12 oz bottle). Bottles were fobbed and crowned. • 7. “10 ppm RA+10 ppm CA+air” in which 10 ppm each of RA and CA was added. This treatment received two puffs of air and was not fobbed before closing. • 8. “Control+air” in which bottles were opened, given two puffs of air and crowned without fobbing. • 9. “Control” in which bottles were opened, fobbed and crowned.
The samples prepared in Example 18 were analyzed for haze in the following manner. A clean, dry, clear flint bottle was marked with a permanent mark on the neck for aligning the bottle the same way for each measurement. The bottle was filled with distilled water to the bottom of the neck and aligned in a Haze Meter with the alignment mark facing forward (Haze Meter, Type UKM1d, Radiometer Copenhagen) to zero the instrument. The bottle was emptied and then filled with a degassed beer sample to be tested and the haze was recorded in ASBC Formazin units.

[3] = DPPH radical scavenging of highly hopped beer during aging at 40° C.; assay type: physicochemical; conditions: for effect on DPPH numbers: beers not treated with air; for effect on DPPH number: beers treated with air
Description: The bottle dosing methods used were the same as those described in Example 1. The following samples were made: • 1. 20 ppm Carnosic Acid • 2. 20 ppm Carnosic Acid plus Air • 3. 20 ppm Rosmarinic Acid • 4. 20 ppm Rosmarinic Acid plus Air • 5. 10 ppm Carnosic Acid+10 ppm Rosmarinic Acid • 6. 10 ppm Carnosic Acid+10 ppm Rosmarinic Acid+Air • 7. […] No Additions. Treatments 1 through 8 were put in a temperature regulated room set at 40° C. and maintained at ±1° C. At intervals of Zero time, 3 days, 7 days, 14 days, and 21 days, samples were withdrawn and Redox Potentials were measured by the method outlined in example 4. Color measurements were made using the L, a, b system on a Minolta Spectrophotometer model […], chroma and hue angle color measure units were recorded. DPPH radical scavenging numbers were measured using the following method. A de-ionized-H2O/EtOH buffer solution was prepared by dissolving 250 mg sodium citrate dihydrate and 10 g of absolute ethanol in 250 mL of deionized water. The solution was then titrated with 0.1 N Citric acid (6.404 g/L anhydrous citric acid) a drop at a time to reach a pH of between 4.35 and 4.5. To perform the test, about 0.04 g of DPPH was weighed to the nearest 0.1 mg in a 100 mL volumetric, recording the exact weight of DPPH. The DPPH was dissolved in methanol and methanol was added to bring the volume to the 100 mL mark. The solution was sonicated to facilitate dissolution. The beers to be measured were opened and 12 mL of each was poured into separate 15 mL centrifuge tubes, making sure that the volumes in all tubes were equal. The analyses were done in triplicate for each beer. An extra beer sample served as a spectrophotometer blank. The beer was degassed by centrifuging it for 15 min at 6,000 rpm. Into each of two 25 mL flasks was pipeted 5 mL of the pH 4.5 water-ethanol buffer. The spectrophotometer wavelength was set to 531 nm and a buffered water blank was zeroed. 1.0 mL of DPPH solution was added to the water buffer, which was swirled at the same time a timer was started. Just before 10 minutes had elapsed, the sample was transferred to a cuvette and the absorbance (ABL) was measured. The analysis was duplicated with another buffer. For accuracy it is necessary that great care be taken to add exactly 1 mL reagent. It is also important to swirl (mix) the samples consistently as the assay is sensitive to oxygen and to the amount of reagent used. Degassed beer was used to obtain a baseline at 531 nm. After centrifugation 5 mL of the beer was transferred into the appropriate labeled 25 mL flask. 1.0 mL of DPPH solution was added, the solution was swirled and the timer was started. The Absorbance ([…]) of the beer sample was recorded. This process was repeated for all samples. To eliminate any possible prejudice in order of analysis, samples were analyzed randomly. The following formula was used to calculate the amount of DPPH which reacts with 5 mL of beer: μmol DPPH=((1-[…]/ABL)×(g DPPH/394))×10^6

[4] = Aged Control vs. Aged treated (32° C., seven days), 50 ppm (CA + RA: 50 ppm each)
[5] = Fresh Control vs. Fresh treated, 50 ppm
[6] = 0 days at 40° C., + Air, 20 ppm (RA + CA: 10 ppm each)
[7] = 0 days at 40° C., no air, 20 ppm (CA + RA: 10 ppm each)
[8] = 3 days at 40° C., + Air, 20 ppm (RA + CA: 10 ppm each)
[9] = 3 days at 40° C., no air, 20 ppm (CA + RA: 10 ppm each)
[10] = 7 days at 40° C., + Air, 20 ppm (RA + CA: 10 ppm each)
[11] = 7 days at 40° C., no air, 20 ppm (CA + RA: 10 ppm each)
[12] = 14 days at 40° C., + Air, 20 ppm (RA + CA: 10 ppm each)
[13] = 14 days at 40° C., no air, 20 ppm (CA + RA: 10 ppm each)
[14] = 21 days at 40° C., + Air, 20 ppm (RA + CA: 10 ppm each)
[15] = 21 days at 40° C., no air, 20 ppm (CA + RA: 10 ppm each)

SMILES	Correct Panelists/Total Panelists (triangle test) [1, 4]	Correct Panelists/Total Panelists (triangle test) [1, 5]	Haze ([2]; Day 0, 40° C., + air) [ASBC Formazin Units]	Haze ([2]; Day 0, 40° C., no air) [ASBC Formazin Units]	Haze ([2]; Day 3, 40° C., + air) [ASBC Formazin Units]	Haze ([2]; Day 3, 40° C., no air) [ASBC Formazin Units]	Haze ([2]; Day 7, 40° C., + air) [ASBC Formazin Units]	Haze ([2]; Day 7, 40° C., no air) [ASBC Formazin Units]	Haze ([2]; Day 14, 40° C., + air) [ASBC Formazin Units]	Haze ([2]; Day 14, 40° C., no air) [ASBC Formazin Units]	Haze ([2]; Day 21, 40° C., + air) [ASBC Formazin Units]	Haze ([2]; Day 21, 40° C., no air) [ASBC Formazin Units]	Haze ([2]; Day 35, 40° C., + air) [ASBC Formazin Units]	Haze ([2]; Day 35, 40° C., no air) [ASBC Formazin Units]	effect on rate of haze formation [2]	DPPH Number [3, 6] [μmol DPPH]	DPPH Number [3, 7] [μmol DPPH]	DPPH Number [3, 8] [μmol DPPH]	DPPH Number [3, 9] [μmol DPPH]	DPPH Number [3, 10] [μmol DPPH]	further results
CC(C)c1cc2c(c(O)c1O)[C@@]1(C(=O)O)CCCC(C)(C)[C@@H]1CC2 [CA, carnosic acid]	9/21	9/20	40	40	45	30	50	35	80	45	120	75	800	110	dramatic positive effect on reducing the rate of haze formation	53.3	52.2	67.2	69.8	55.6	DPPH Number [3, 11]: 64.7 μmol DPPH; DPPH Number [3, 12]: 61.7 μmol DPPH; DPPH Number [3, 13]: 64.4 μmol DPPH; DPPH Number [3, 14]: 56.5 μmol DPPH; DPPH Number [3, 15]: 60.5 μmol DPPH; effect on DPPH numbers [3]: Neither CA nor RA has much impact on DPPH numbers; effect on DPPH number [3]: preserves the DPPH number in beers that have been treated with air
O=C(/C=C/c1ccc(O)c(O)c1)O[C@H](Cc1ccc(O)c(O)c1)C(=O)O [RA, rosmarinic acid]	12/20	10/22	37	37	32	40	40	35	100	40	175	55	800	120	dramatic positive effect on reducing the rate of haze formation	49.9	51.8	67.1	66.3	57.7	Correct Panelists/Total Panelists (triangle test) ([1]; Fresh Control vs. Aged treated (32° C., seven days), 50 ppm (CA + RA: 50 ppm each)): 12/21; difference from untreated samples detected by triangle panel ([1]; aged for 7 days): significant difference with a 95% confidence level; DPPH Number [3, 11]: 58.7 μmol DPPH; DPPH Number [3, 12]: 56.3 μmol DPPH; DPPH Number [3, 13]: 63.7 μmol DPPH; DPPH Number [3, 14]: 50.5 μmol DPPH; DPPH Number [3, 15]: 57.5 μmol DPPH; effect on DPPH numbers [3]: Neither CA nor RA has much impact on DPPH numbers; effect on DPPH number [3]: preserves the DPPH number in beers that have been treated with air
